The record followed here is ChEMBL document CHEMBL4330083, “Synthesis and evaluation of isoprenylation-resveratrol dimer derivatives against Alzheimer's disease” (Eur J Med Chem, 2019).

Series [1] can be described thus: Antioxidant activity assessed as ABTS radical cation scavenging activity by measuring trolox equivalents after 150 mins. It counts as functional.
Series [2] in a line: Antioxidant activity assessed as inhibition of DPPH free radical after 30 mins by UV-Visible spectrophotometric analysis. It counts as functional. In general terms: The DPPH test is a chemical assay of radical scavenging.
The nature of series [3]: Antioxidant activity assessed as ferric ion reduction by measuring trolox equivalents after 3 to 5 mins by FRAP assay. It counts as functional.
The target of series [4] is T1, Amine oxidase [flavin-containing] B (Homo sapiens, UniProt P27338).
T1 sequence (P27338 whole entry): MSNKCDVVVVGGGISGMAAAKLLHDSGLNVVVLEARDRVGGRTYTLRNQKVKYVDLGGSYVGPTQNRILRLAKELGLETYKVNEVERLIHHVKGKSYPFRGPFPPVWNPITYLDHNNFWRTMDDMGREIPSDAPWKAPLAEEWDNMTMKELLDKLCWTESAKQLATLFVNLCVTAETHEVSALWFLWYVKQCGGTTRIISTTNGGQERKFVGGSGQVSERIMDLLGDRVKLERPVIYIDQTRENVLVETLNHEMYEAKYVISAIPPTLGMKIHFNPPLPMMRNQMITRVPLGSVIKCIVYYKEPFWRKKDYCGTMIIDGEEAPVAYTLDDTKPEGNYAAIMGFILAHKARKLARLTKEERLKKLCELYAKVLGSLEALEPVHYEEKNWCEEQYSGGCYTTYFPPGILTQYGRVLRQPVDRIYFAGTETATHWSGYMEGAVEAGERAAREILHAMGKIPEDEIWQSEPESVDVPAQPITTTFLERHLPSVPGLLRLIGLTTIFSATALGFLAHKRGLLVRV

The next series is filed under the species Homo sapiens. Kind of series: Selectivity ratio of IC50 for human MAO-A to IC50 for human MAO-B.
Series [5] concerns the target T2, Amine oxidase [flavin-containing] A (Homo sapiens, UniProt P21397).
T2 sequence (P21397 whole entry): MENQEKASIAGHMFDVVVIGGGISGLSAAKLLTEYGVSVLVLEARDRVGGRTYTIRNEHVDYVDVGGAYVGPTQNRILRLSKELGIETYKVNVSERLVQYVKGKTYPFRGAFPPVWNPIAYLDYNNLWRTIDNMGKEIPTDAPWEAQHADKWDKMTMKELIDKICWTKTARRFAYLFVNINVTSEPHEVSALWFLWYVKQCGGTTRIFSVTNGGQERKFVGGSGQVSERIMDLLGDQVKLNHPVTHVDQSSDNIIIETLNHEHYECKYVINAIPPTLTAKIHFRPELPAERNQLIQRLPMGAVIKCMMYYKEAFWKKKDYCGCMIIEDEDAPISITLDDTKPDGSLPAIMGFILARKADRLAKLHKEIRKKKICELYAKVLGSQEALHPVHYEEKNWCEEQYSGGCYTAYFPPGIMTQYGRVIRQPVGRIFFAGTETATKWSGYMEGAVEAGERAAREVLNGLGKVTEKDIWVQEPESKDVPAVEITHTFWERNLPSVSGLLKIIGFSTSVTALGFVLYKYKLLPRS
Kind of series: Inhibition of human MAO-A preincubated for 15 mins followed by p-tyramine substrate addition and measured after 20 mins by Amplex red reagent based fluorescence assay.

The nature of another series: in vitro. Details: dose or concentration left out as unconfirmed. The conditions noted are these: PAMPA. (In general: In PAMPA a lipid-coated filter parts donor from acceptor wells.)

Description for in vitro: Effective permeability of the compound at 100 mg/ml incubated for 16 hrs by PAMPA-BBB assay

In general, IC50 refers to the concentration needed to halve the response being measured. With `Oc1ccc(/C=C/c2cc(O)cc(O)c2)cc1` [RESVERATROL], the Activity in series [1] was 1.07 equiv; in series [3], 0.98 equiv. Moreover, the IC50 was 79.9 µM in series [2] and 5.01 µM in series [4].

On to `CC(C)=CCc1c(O)cc([C@@H](Oc2ccc(/C=C/c3cc(O)c4c(c3)OC(C)(C)CC4)cc2)[C@@H](C)c2ccc(O)cc2)cc1O`, for which the Ratio IC50 in the series filed under Homo sapiens was determined as 2.05. The IC50 in series [5] amounted to 18.9 µM; in series [2], 150 µM; in series [4] it was 9.23 µM. Moreover, the Activity in series [1] worked out at 0.89 equiv; in series [3], 1.26 equiv.

In the case of `CC(C)=CCc1c(O)cc(/C=C/c2ccc(O)cc2)cc1O` [ARACHIDIN-2], the Ratio IC50 in the series listed under Homo sapiens came to 3.1. Also, the figures for the IC50 in series [5], in series [2] and in series [4] were 11.3 µM, 73.3 µM and 3.62 µM, respectively. For the same molecule, the results for the Activity in series [1] and in series [3] were 1.23 equiv and 1.03 equiv, respectively.

For `Cc1c(C)c2c(c(C)c1O)CCC(C)(C(=O)O)O2` (stereo not given) [TROLOX], the Activity in series [1] and in series [3] was 1 equiv throughout. The IC50 in series [2] stood at 49.8 µM.

Take `CO[C@@H](c1ccc(O)cc1)[C@H](Oc1ccc(/C=C/c2cc(O)c3c(c2)OC(C)(C)CC3)cc1)c1cc(O)c(CC=C(C)C)c(O)c1`: the Ratio IC50 in the series filed under Homo sapiens was 5.58. Also, the results for the IC50 in series [5], in series [2] and in series [4] were 10.6 µM, 185 µM and 1.9 µM, respectively. In addition, the Activity in series [1] worked out at 0.29 equiv; in series [3] it was 1.04 equiv.

One may read the Papp as the rate of passage across a membrane or cell layer, normalised by area and donor concentration. On to `C[C@]12CC[C@@H]3c4ccc(O)cc4CC[C@H]3[C@@H]1CC[C@@H]2O` [ESTRADIOL], for which, in “in vitro”, the Papp at 16 h is 13.3 ×10⁻⁶ cm/s.

For the molecule `Oc1ccc([C@H]2Oc3ccc(/C=C/c4cc(O)cc(O)c4)cc3[C@@H]2c2cc(O)cc(O)c2)cc1`, the Ratio IC50 in the series listed under Homo sapiens was 3.74. The figures for the IC50 in series [5], in series [2] and in series [4] were 8.93 µM, 76.8 µM and 2.39 µM, respectively.
